One test deals with platelet aggregation. As to conditions: read-out: AA-induced platelet aggregation (AAIPA) IC50; cited from earlier work.
The subject of a further test is PGE2 production. As to conditions: stimulated macrophages; read-out: Inhibition of PGE2 production IC50; cited from earlier work.
The next test has as its system LTB4 production. The settings on record: stimulated macrophages; read-out: Inhibition of LTB4 production IC50; cited from earlier work.
For the next test, the system named is platelet function. The settings on record: cited from earlier work.
In test [1] the test system is NF-κB. Put plainly: NF-κB nuclear membrane translocation, EMSA, LPS-treated NR8383 cells. The settings on record: Rattus norvegicus. In kind it is cell-based. Here is the method: Experiments measuring test agents effect on NF-κB nuclear membrane translocation were performed with NR8383 cells, which are transformed rat alveolar macrophages. […] In addition, some compounds were tested at doses of 10 and 30 μM. Untreated control cells and cells treated with LPS alone were tested in each experiment. Cells were harvested 6 hours after treatment. Nuclear proteins were extracted, frozen and quantified using the Bradford assay. Electrophoretic mobility shift assays (EMSA) were subsequently analyzed using a radiolabeled NF-κB probe. Nuclear proteins were reacted with the radiolabeled probe, run on a 5% polyacrylamide gel, and subjected to autoradiography. Specificity of protein binding for the NF-κB binding site was assayed by cold and nonspecific competition using the LPS treated sample in each experiment. All EMSA were duplicated at least once to verify results. Laser densitometry of NF-κB bands was done on autoradiographs to quantify NF-κB binding activity.
On the technique in general: In EMSA bound probe runs differently from free probe, usually more slowly.

Test [2] has as its system Lipid peroxidation (rat liver microsomes). Put plainly: Lipid peroxidation screen (LPO), CCl4-induced, liver microsomes. In kind it is biochemical. The settings on record: 300 μM.
Test [3] has as its target T1, 5-Lipoxygenase (crude enzyme preparation from rat basophilic leukemia cells, RBL-1) (Rattus norvegicus, UniProt P12527).
T1 construct: crude enzyme preparation from rat basophilic leukemia cells (RBL-1); endogenous in cells; host or cells: rat basophilic leukemia cells (RBL-1)
T1 sequence (P12527 1-673): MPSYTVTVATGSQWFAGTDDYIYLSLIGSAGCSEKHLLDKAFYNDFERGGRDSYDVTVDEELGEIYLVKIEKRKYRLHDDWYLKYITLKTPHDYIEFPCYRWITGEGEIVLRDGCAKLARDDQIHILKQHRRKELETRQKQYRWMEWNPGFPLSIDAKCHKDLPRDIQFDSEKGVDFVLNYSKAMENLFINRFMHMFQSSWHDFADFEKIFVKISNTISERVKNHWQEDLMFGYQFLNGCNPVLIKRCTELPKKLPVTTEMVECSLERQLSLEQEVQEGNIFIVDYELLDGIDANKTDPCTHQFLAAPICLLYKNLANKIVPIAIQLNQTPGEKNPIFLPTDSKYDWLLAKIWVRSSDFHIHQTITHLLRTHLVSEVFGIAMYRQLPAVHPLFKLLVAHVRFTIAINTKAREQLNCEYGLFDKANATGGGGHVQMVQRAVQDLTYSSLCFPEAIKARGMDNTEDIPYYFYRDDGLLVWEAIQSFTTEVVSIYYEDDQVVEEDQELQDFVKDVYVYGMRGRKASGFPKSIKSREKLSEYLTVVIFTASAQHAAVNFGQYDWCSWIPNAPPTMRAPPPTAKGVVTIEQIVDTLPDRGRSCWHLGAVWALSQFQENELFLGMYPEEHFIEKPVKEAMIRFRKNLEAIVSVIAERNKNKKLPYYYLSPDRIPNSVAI
Briefly: 5-Lipoxygenase screen (5-LO), 5-HETE by RIA. The settings on record: for inhibition at 30 µM: read-out: 5-LO percent inhibition; for inhibition at 1 µM: read-out: Percent inhibition of 5-LO, test conc. 1 μM (Table II). Type of test: biochemical.

In test [4] the target is T2, Cyclooxygenase-2 (prostaglandin H synthetase-2) from sheep placenta (Ovis aries, UniProt P79208).
T2 construct: cyclooxygenase-2 from sheep placenta; from tissue; host or cells: sheep placenta
T2 sequence (P79208 17-603): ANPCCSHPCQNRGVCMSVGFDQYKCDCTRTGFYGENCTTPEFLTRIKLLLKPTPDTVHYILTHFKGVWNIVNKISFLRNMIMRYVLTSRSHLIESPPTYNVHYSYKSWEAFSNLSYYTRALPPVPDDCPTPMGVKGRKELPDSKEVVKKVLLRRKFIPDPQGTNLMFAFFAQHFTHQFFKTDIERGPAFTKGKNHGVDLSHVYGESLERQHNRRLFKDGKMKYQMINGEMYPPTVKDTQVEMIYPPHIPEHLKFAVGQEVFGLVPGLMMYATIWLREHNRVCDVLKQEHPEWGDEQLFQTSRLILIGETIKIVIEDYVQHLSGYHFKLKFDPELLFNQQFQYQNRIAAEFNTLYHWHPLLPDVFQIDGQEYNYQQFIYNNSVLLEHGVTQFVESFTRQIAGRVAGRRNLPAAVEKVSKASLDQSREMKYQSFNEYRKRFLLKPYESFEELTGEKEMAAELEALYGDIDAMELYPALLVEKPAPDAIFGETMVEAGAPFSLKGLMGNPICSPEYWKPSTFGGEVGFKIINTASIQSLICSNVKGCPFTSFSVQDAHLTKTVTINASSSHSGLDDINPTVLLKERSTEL
Put plainly: Cyclooxygenase-2 screen (COX-2). In kind it is biochemical. As to conditions: read-out: COX-2 percent inhibition.

For test [5], the target named is T3, Cyclooxygenase-1 (cyclooxygenase from ram seminal vesicles) (Ovis aries, UniProt P05979).
T3 construct: cyclooxygenase from ram seminal vesicles; from tissue; host or cells: ram seminal vesicles
T3 sequence (P05979 25-600): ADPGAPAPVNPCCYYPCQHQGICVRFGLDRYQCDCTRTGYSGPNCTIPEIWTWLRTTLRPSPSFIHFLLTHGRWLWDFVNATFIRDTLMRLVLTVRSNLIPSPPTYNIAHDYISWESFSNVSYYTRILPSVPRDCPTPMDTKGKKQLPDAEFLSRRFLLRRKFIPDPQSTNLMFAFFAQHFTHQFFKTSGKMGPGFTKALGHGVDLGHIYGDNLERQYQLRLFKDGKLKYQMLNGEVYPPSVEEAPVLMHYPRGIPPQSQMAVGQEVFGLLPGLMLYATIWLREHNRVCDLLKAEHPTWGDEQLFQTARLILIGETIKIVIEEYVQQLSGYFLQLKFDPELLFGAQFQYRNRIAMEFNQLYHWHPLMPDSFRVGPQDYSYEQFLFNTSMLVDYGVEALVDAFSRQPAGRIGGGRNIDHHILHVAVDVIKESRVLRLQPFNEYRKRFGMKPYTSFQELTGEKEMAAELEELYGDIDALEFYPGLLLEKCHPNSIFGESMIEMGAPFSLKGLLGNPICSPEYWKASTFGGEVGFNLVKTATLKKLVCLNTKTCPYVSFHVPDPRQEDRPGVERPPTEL
Put plainly: Cyclooxygenase-1 screen (COX-1). In kind it is biochemical. As to conditions: 300 μM.

For test [6], the system named is Nuclear Factor-kappa B (NF-κB). Briefly: NF-κB lacZ (κB-Z) reporter assay in transfected Jurkat cells stimulated with A23187 and PMA. In kind it is cell-based, human. As to conditions: Homo sapiens; 10 μM; κB-Z Jurkat cells, A23187 and PMA (Table III); read-out: NF-κB percent inhibition. Here is the method: The human T lymphoid cell line Jurkat was transfected with a response element lacZ reporter in which transcription of the β-galactosidase gene is directed by the binding site for the NF-κB transcription factor. […] At the end of the incubation, the cells are spun down and resuspended in the buffer and FDG (fluorescein di-β-D-galactopyranoside) solution. The covered plates are further incubated in the dark for 16 hours at 25° C. […] Compounds were screened at 10 μM.
(Reporter assays use an easily measured gene product as a stand-in for the process of interest.)

The subject of test [7] is NF-κB. As to conditions: cited from earlier work.

A value given as a limit tells only on which side of the number the result lay.

The values that follow come from patent US6262073A, “Pharmaceutical methods of use of 5-substituted and 5,5 disubstituted-3,4-dihydroxy-2(5H)-furanones” (Oxis International Inc., priority 2000, dated 2001).

With `CCCCC/C=C\C/C=C\C/C=C\C/C=C\CC[C@@H]1OC(=O)C(O)=C1O` [(S)-3,4-dihydroxy-5[(all Z)-3,6,9,12-octadecatraenyl]-2 (5H)-furanone], the values for the IC50 with platelet aggregation, in the test with PGE2 production and with LTB4 production were less than 10 µM, 20 µM and 20 µM, respectively.
On to `O=C1OC(c2ccc(Cl)cc2)C(O)=C1O` (stereo not shown) [CHTA, 4-(4-chlorophenyl)-2-hydroxytetronic acid], for which the “Inhibition of platelet function” value in the test with platelet function is “inhibits platelet function by a similar mechanism, involving arachidonic acid release”.
As to `C[C@@H]1C[C@H]2[C@@H]3CCC4=CC(=O)C=C[C@]4(C)[C@@]3(F)[C@@H](O)C[C@]2(C)[C@@]1(O)C(=O)CO` [Dexamethasone], in the test on NF-κB [1] (6 h, read-out: % Inhibition (NF-κB nuclear translocation)), the inhibition (usually the change of the read-out against control, counted positive when it falls) at 1 µM came out at 60%.
As to `O=C1OC(CCSc2nc(-c3ccccc3)c(-c3ccccc3)o2)C(O)=C1O` (stereo not shown) [Example 24, 3,4-Dihydroxy-5-[2-(4,5-diphenyl-1,3-oxazole-2-thio)ethyl]-2(5H)-furanone], the LPO percent inhibition in test [2] is reported as 78%. In addition, in test [3], the inhibition at 30 µM amounted to 113% and the inhibition at 1 µM was 71%. For the same molecule, the inhibition at 300 µM in test [4] is 68%. The COX-1 percent inhibition in [5] was 76%. Also, in test [6], the inhibition at 10 µM turned out to be 44%.
Regarding `O=C1OC(CCC#Cc2ccc3ccccc3c2)C(O)=C1O` (stereo not shown) [Example 32, 3,4-Dihydroxy-5-[4-(2-naphthyl)-3-butynyl]-2(5H)-furanone], in the test on NF-κB [1] (30 nM, LPS 1 μg/ml, NR8383 cells, 6 hours), the inhibition at 0.03 µM stood at 90%. This molecule also yielded an LPO percent inhibition in test [2] of 75%. Further, in test [3], the inhibition at 30 µM came to 98% and the inhibition at 1 µM came out at 66%. Moreover, in test [4], the inhibition at 300 µM was found to be 23%. This molecule yielded a COX-1 percent inhibition in test [5] of 34%.
`S=C(S)N1CCCC1` [Pyrrolidone dithiocarbamate (PDTC), Pyrrolidone dithiocarbamate]: the “Inhibition of H2O2 and extracellular cytokine-induced activation of NF-κB” value with NF-κB [7] was “inhibit both the H2 O2 and extracellular cytokine-induced activation of NF-κB in a concentration dependent manner”. For the same molecule, the inhibition at 10 µM with NF-κB [1] (10,000 nM, LPS 1 μg/ml, NR8383 cells, 6 hours) was determined as 50%.
